molecular target: T1, recombinant purified human EHMT2 913-1193 (Homo sapiens, UniProt Q96KQ7); assay: EHMT2 enzyme assay on histone peptide substrate (3H-SAM Flashplate); assay type: biochemical; settings: read-out: EHMT2 PEP (IC50 μM)
T1 construct: Recombinant purified human EHMT2 913-1193 (55 μM) synthesized by Viva was used for all experiments; purchased Viva
T1 sequence (Q96KQ7 913-1193): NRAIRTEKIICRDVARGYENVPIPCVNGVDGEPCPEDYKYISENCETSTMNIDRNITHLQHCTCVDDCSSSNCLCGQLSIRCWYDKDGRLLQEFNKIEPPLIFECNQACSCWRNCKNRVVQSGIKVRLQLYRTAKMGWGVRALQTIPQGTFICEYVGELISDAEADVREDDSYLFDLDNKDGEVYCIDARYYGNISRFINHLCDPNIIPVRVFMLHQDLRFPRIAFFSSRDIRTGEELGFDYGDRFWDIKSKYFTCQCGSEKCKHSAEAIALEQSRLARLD
Method: Recombinant purified human EHMT2 913-1193 (55 μM) synthesized by Viva was used for all experiments. Biotinylated histone peptides were synthesized by Biopeptide and HPLC-purified to >95% purity. Streptavidin Flashplates and seals were purchased from PerkinElmer and 384 Well V-bottom Polypropylene Plates were from Greiner. ^3H-labeled S-adenosylmethionine (3H-SAM) was obtained from American Radiolabeled Chemicals with a specific activity of 80 Ci/mmol. Unlabeled SAM and S-adenosylhomocysteine (SAH) were obtained from American Radiolabeled Chemicals and Sigma-Aldrich respectively. Flashplates were washed in a Biotek ELx-405 with 0.1% Tween. 384-well Flashplates and 96-well filter binding plates were read on a TopCount microplate reader (PerkinElmer). Compound serial dilutions were performed on a Freedom EVO (Tecan) and spotted into assay plates using a Thermo Scientific Matrix PlateMate (Thermo Scientific). Reagent cocktails were added by Multidrop Combi (Thermo Scientific).
General Procedure for EHMT2 Enzyme Assay on Histone Peptide Substrate.
10-point curves of test compounds were made on a Freedom EVO (Tecan) using serial 3-fold dilutions in DMSO, beginning at 2.5 mM (final top concentration of compound was 50 μM and the DMSO was 2%). A 1 μL aliquot of the inhibitor dilution series was spotted in a polypropylene 384-well V-bottom plate (Greiner) using a Thermo Scientific Matrix PlateMate (Thermo Scientific). The 100% inhibition control consisted of 1 mM final concentration of the product inhibitor S-adenosylhomocysteine (SAH, Sigma-Aldrich). Compounds were incubated for 30 minutes with 40 μL per well of 0.031 nM EHMT2 (recombinant purified human EHMT2 913-1193, Viva) in 1× assay buffer (20 mM Bicine [pH 7.5], 0.002% Tween 20, 0.005% Bovine Skin Gelatin and 1 mM TCEP). 10 μL per well of substrate mix comprising assay buffer, ^3H-SAM (3H-labeled S-adenosylmethionine, American Radiolabeled Chemicals, specific activity of 80 Ci/mmol), unlabeled SAM (American Radiolabeled Chemicals), and peptide representing histone H3 residues 1-15 containing C-terminal biotin (appended to a C-terminal amide-capped lysine, synthesized by Biopeptide and HPLC-purified to greater than 95% purity) were added to initiate the reaction (both substrates were present in the final reaction mixture at their respective Km values, an assay format referred to as “balanced conditions”). Reactions were incubated for 60 minutes at room temperature and quenched with 10 μL per well of 400 μM unlabeled SAM, then transferred to a 384-well streptavidin Flashplate (PerkinElmer) and washed in a Biotek ELx-405 well washer with 0.1% Tween after 60 minutes. 384-well Flashplates were read on a TopCount microplate reader (PerkinElmer).
IC50 curves were generated using triplicate wells per concentration of compound. The IC50 is the concentration of compound at which measured methylation is inhibited by 50% as interpolated from the dose response curves. IC50 values were calculated using a non-linear regression (variable slope-four parameter fit model) with by the following formula
where Top is fixed at 100% and Bottom is fixed to 0%, [I]=concentration of inhibitor, IC50=half maximal inhibitory concentration and n=Hill Slope.

Compound	IC50
CNc1cc(C)nc(Nc2ccc(OC)c(-c3ccc4c(c3)NC(=O)C4)c2)n1 [Compound 218]	> 10 µM
CNc1cc(C)nc(Nc2ccc(OC)c(-c3cc4c(cn3)CC(=O)N4)c2)n1 [Compound 219]	1 to 10 µM
CNc1cc(C)nc(Nc2ccc(OC)c(-c3cc4[nH]ccc4cn3)c2OC)n1 [Compound 220]	> 10 µM
CNc1cc(-c2cc(Nc3nc(C)cc(NC)n3)ccc2OC)ncn1 [Compound 225]	1 to 10 µM
CNc1cc(-c2cc(Nc3nc(C)cc(NC)n3)ccc2OC)nc(C)n1 [Compound 230]	0.1 to 1 µM
COc1cc(NC2CCNCC2)ccc1-c1cc2[nH]ccc2cn1 [Compound 231]	1 to 10 µM
CNc1cc(C)nc(Nc2ccc(OC)c(-c3cc(C4CC4)ncn3)c2)n1 [Compound 232]	> 10 µM
CNc1cc(C)nc(Nc2ccc(OC)c(-c3cc(C4CC4)cnn3)c2)n1 [Compound 233]	1 to 10 µM
CNc1cc(C)nc(Nc2ccc(OC)c(-c3cn4ccnc4cn3)c2)n1 [Compound 234]	> 10 µM
CNc1cc(C)nc(Nc2ccc(OC)c(-c3cc4cnoc4cn3)c2)n1 [Compound 235]	> 10 µM
COc1cc(NC2CCNCC2)ccc1-c1cc(C2CC2)cnn1 [Compound 236]	> 10 µM
CNc1cc(C)nc(Nc2ccc(C)c(C(=O)Nc3cccnc3)c2)n1 [Compound 239]	> 10 µM
CNc1cc(C)nc(Nc2ccc(Cl)c(C(=O)Nc3cccnc3)c2)n1 [Compound 240]	> 10 µM
CNc1cc(C)nc(Nc2cccc(C(=O)Nc3cccnc3)c2)n1 [Compound 242]	> 10 µM

Now from value to compound:

IC50	Compound
< 0.1 µM	CNC1=Nc2cc(-c3cc4[nH]ccc4cn3)c(OC)cc2C12CCC2 [Compound 214]
< 0.1 µM	CNC1=Nc2cc(-c3cc4ccncc4[nH]3)c(OC)cc2C12CCC2 [Compound 215]
< 0.1 µM	CNC1=Nc2cc(-c3[nH]c4cnccc4c3Cl)c(OC)cc2C12CCC2 [Compound 216]
0.1 to 1 µM	CNc1cc(C)nc(Nc2ccc(OC)c(-c3cc4[nH]ccc4cn3)c2F)n1 [Compound 221]
0.1 to 1 µM	CNCc1cnn(-c2c(OC)ccc(Nc3nc(C)cc(NC)n3)c2OC)c1 [Compound 222]
< 0.1 µM	CNc1cc(C)nc(Nc2ccc(OC)c(-c3cnc4cc[nH]c4c3)c2)n1 [Compound 223]
< 0.1 µM	CNc1cc(C)nc(Nc2ccc(OC)c(-c3cc4[nH]ccc4nc3C)c2)n1 [Compound 228]
0.1 to 1 µM	CNc1cc(C)nc(Nc2ccc(OC)c(-c3cc4[nH]cc(F)c4cn3)c2)n1 [Compound 229]
< 0.1 µM	CNc1cc(C)nc(Nc2ccc(OC)c(-c3cc4[nH]ccc4c(C)n3)c2)n1 [Compound 237]
< 0.1 µM	CNC1=Nc2cc(-c3[nH]c4cnccc4c3C)c(OC)cc2C12CCC2 [Compound 238, 5′-methoxy-N-methyl-6′-(3-methyl-1H-pyrrolo[2,3-c]pyridin-2-yl)spiro[cyclobutane-1,3′-indol]-2′-amine]
< 0.1 µM	CNc1cc(C)nc(Nc2ccc(C)c(-c3cc4ccncc4[nH]3)c2)n1 [Compound 241]

From US20220235065A1 (Epizyme, Inc., priority 2016, published 2022)
